{"source": "patent US10259799B2", "about": "“Hydroxyl pyranone compound, method for producing same, and cosmetics composition comprising compound” (AMOREPACIFIC CORPORATION, priority 2015, dated 2019)", "tested_on": "human adipose tissue derived mesenchymal stem cells (hAT-MSCs)", "experiment": "Adipocyte differentiation promoting effect: adiponectin in culture medium by ELISA", "type": "cell-based", "conditions": "for expression level of adiponectin (in words): hAT-MSCs with IDX, 14th day, comment on Table 1; for Adiponectin (pg/ml, Avg ± S.D.): medium collected on 14th day of differentiation", "method": "In order to examine the adipocyte differentiation promoting effect of the compounds prepared in the Example, the following test was carried out.\nAdiponectin is a typical protein hormone secreted from adipocytes. It has been reported that as adipocytes are differentiated, the expression of adiponectin is increased. Therefore, the adipocyte differentiation promoting effect was confirmed by measuring the amount of adiponectin expressed in the cell culture medium when treated with the novel compound of the present invention, which is an indicator of adipocyte differentiation promoting.\nThe adipocyte differentiation was performed by culturing human adipose tissue derived mesenchymal stem cells (hAT-MSCs) from Lonza Inc. (Walkersville, Md., USA) according to Lonza's guidelines. The adipocyte differentiation was carried out using the method recommended by Lonza Inc., except that the adipocyte differentiation of adipose-derived mesenchymal stem cells is induced by using troglitazone (TRO) instead of indomethacin. Specifically, the mesenchymal stem cells were differentiated into adipocytes by adding the medium for adipocyte differentiation (hereinafter referred to as IDX), which was prepared by mixing […] of insulin, […] of Dexamethasone (DEXA), 0.5 mM of isobutylmethylxanthine (IBMX) and […] of TRO, to the culture medium of mesenchymal stem cells, and then culturing it.\nIn order to determine the expression level of adiponectin, after the medium for adipocyte differentiation was collected on the 14th day of differentiation, the amount of adiponectin was quantified using the Adiponectin ELISA Kit (R & D systems, Cat. No. DY1065) (each data value was corrected by the control group). The specific measurement method using Adiponectin ELISA Kit was as follows.\nFirst, the capture antibody was reacted in a 96-well plate, washed with washing buffer solution, and then the material shown in Table 1 below was added and reacted at room temperature for 2 hours. Thereafter, while washing three times every time when going through each step, the detection antibody, the HRP enzyme, the substrate solution, and the stop solution were added in order and reacted for the time indicated in the protocol. After the final reaction, the absorbance was measured at a wavelength of 450 nm using a spectrophotometer."}
{"smiles": "O=c1cc(CO)occ1O", "note": "[Kojic acid]", "values": [{"measurement": "expression level of adiponectin (in words)", "value": "not increased"}]}
{"smiles": "O=C(/C=C/c1ccc2c(c1)OCO2)OCc1cc(=O)c(O)co1", "note": "[Seletinoid G]", "values": [{"measurement": "Adiponectin (pg/ml, Avg ± S.D.)", "value": "1505 ± 109", "unit": "pg/mL"}]}
{"smiles": "CC1=C(/C=C/C(=O)OCc2cc(=O)c(O)co2)C(C)(C)CCC1", "note": "[compound of example, 3-(2,6,6-trimethyl-cyclohex-1-enyl)-propenoic acid 5-hydroxy-4-oxo-4H-pyran-2-ylmethyl ester]", "values": [{"measurement": "expression level of adiponectin (in words)", "value": "increases almost similarly to that with Glibenclamide"}, {"measurement": "Adiponectin (pg/ml, Avg ± S.D.)", "value": "1804 ± 110", "unit": "pg/mL"}]}
